Measured values taken from US20230285524A1, “USE OF ELAFIN FOR DISORDERS ASSOCIATED WITH ELASTASE INDEPENDENT INCREASE IN TROPONIN” (tiakis Biotech AG, priority 2014, published 2023).

Tests used:
[1] = test system: troponin I release from cardiomyocytes; assay: Plasma cTroponin I after coronary artery bypass grafting surgery, randomized double-blinded trial, Elafin versus placebo; format: in vivo, human; conditions: 200 mg i.v. infusion at start of surgery
Procedure: Patients undergoing coronary artery bypass grafting surgery were treated with either intravenous infusion of a 200 mg dose of Elafin in 250 mL of normal saline (Elafin group, n=44) or 250 mL of normal saline (placebo group, n=42) in a randomized, double-blinded clinical trial. The intravenous infusion was started at first skin incision and completed at least 20 min before cardiopulmonary bypass commenced.
Blood samples were taken at baseline (time 0, skin incision) and at 2, 6, 24 and 48 h post-operatively. Plasma cTroponin I concentrations were quantified with the Abbott Architect highly-sensitive assay (Abbott Laboratories, ILL) according to the manufacturer's instructions. This assay has a sensitivity of 0.01 ng/mL or less, with a 10% coefficient of variation of 0.032 ng/mL and a 99th percentile (male and female) of 0.012 ng/mL. cTroponin I is a regulatory protein of cardiomyocyte contraction and its presence in blood plasma is a specific indication of cardiomyocyte injury.

U937 = U937 cells, Butler et al., 2006, cited from earlier work
C-reactive protein (CRP) = assay: Serum C-reactive protein after on-pump coronary artery bypass grafting surgery, Elafin versus placebo; format: in vivo, human; conditions: 200 mg i.v. infusion, time point 6 h
Procedure: (§1) 44 Patients undergoing on-pump coronary artery bypass grafting surgery received a 200 mg dose of Elafin in 250 mL of normal saline by intravenous infusion that was started at first skin incision and completed at least 20 min before cardiopulmonary bypass commenced. A second group of 42 patients undergoing the same surgical procedure received 250 ml normal saline (placebo) per infusion instead.
Blood was drawn from patients and from the blood samples serum was prepared. Serum levels of the inflammatory marker C-reactive protein (CRP) at time point 6 h were measured (FIG. 4).

IL-6 = assay: Serum interleukin 6 after on-pump coronary artery bypass grafting surgery, Elafin versus placebo; format: in vivo, human; conditions: 200 mg i.v. infusion
Procedure: as §1
Blood was drawn from patients and from the blood samples serum was prepared. Serum levels of interleukin 6 were determined by the use of a Human Interleukin 6 Immunoassay (R&D Systems Europe, Abingdon, UK) according to the instructions of the manufacturer. This assay employs the quantitative sandwich enzyme immunoassay technique. A monoclonal antibody specific for IL-6 has been pre-coated onto a microplate. Interleukin 6 standards and samples were pipetted into wells and any IL-6 present was bound by an immobilized antibody. After washing away any unbound substances, an enzyme-linked polyclonal antibody specific for IL-6 was added to the wells. Following a wash to remove any unbound antibody-enzyme reagent, a substrate solution was added to the wells. After an incubation period, an amplifier solution was added to the wells and color developed in proportion to the amount of IL-6 bound in the initial step. The color development was stopped and the intensity of the color is measured.

[2] = rats; cited from earlier work
20 S proteasome = conditions: Butler et al., 2006; cited from earlier work

For “Elafin: recombinant human protein of 57 amino acids (SEQ ID NO:1), reversible tight binding inhibitor of elastase and proteinase 3 (AQEPVKGPVSTKPGSCPIILIRCAMLNPPNRCLKDTDCPGIKKCCEGSCGMACFVPQ; listed as Homo sapiens)”, the “reduction of troponin I release 6 hours after commencement of surgery” value ([1]; 6 h) was “significant reduction”, the “overall reduction of the Troponin I release (area under the curve) over 48 hours, in words” value ([1]; AUC 0-48 h) was “overall reduction” and the “overall reduction of the troponin I release over 48 hours (area under the curve)” value ([1]; AUC 0-48 h) was 20-40%. For the same substance, the “LPS-induced activation of the transcription factors AP-1 and NF-κB” value (U937) was “inhibited”, the “production of macrophage chemokine MCP-1 (CCL2)” value (U937; LPS) was “inhibition” and the “effect on serum level of CRP (postoperative rise)” value (C-reactive protein (CRP)) was “no effect”. For the same substance, the “effect on serum level of CRP (postoperative rise)” value (C-reactive protein (CRP); listed as elafin) was “not affected”, the “effect on serum level of IL-6 (postoperative rise)” value (IL-6) was “no effect” and the “effect on serum level of IL-6 (postoperative rise)” value (IL-6; listed as elafin) was “not affected”. The “side effects after intravenous administration” value [2] was “without any side effects” and the “inhibition of peptidase activities associated with the 20 S proteasome” value (20 S proteasome) was “no inhibition”.
